{
  "source": "paper PMC10313052",
  "about": "“Filarial DAF-12 sense the host serum to resume iL3 development during infection” (PLOS Pathogens, 2023)",
  "key": {"DimDAF-12": {"target": "DimDAF-12 (Dirofilaria immitis, UniProt A0A7D0JJL8)", "sequence (A0A7D0JJL8 587-828 limits assumed)": "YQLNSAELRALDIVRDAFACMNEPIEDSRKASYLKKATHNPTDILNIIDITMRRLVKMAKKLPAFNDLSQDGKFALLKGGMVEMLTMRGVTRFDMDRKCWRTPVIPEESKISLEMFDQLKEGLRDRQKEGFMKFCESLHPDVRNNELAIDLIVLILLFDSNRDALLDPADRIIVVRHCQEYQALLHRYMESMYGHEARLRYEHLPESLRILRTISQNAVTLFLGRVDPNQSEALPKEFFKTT", "experiment": "cell-based", "format": "cell-based"}, "HcoDAF-12": {"target": "T1, HcoDAF-12 (Haemonchus contortus, UniProt A0A7I4Z123)", "T1 sequence (A0A7I4Z123 444-684)": "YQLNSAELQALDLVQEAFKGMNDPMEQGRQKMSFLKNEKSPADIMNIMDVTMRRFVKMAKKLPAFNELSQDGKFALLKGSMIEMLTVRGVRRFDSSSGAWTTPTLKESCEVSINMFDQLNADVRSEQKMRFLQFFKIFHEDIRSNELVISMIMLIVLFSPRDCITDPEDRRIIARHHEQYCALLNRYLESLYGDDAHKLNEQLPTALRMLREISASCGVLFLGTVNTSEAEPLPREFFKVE", "experiment": "Cell-based transactivation assay, Gal4-HcoDAF-12_LBD luciferase reporter in NIH3T3 cells"}, "CelDAF-12": {"target": "T2, CelDAF-12 (Caenorhabditis elegans, UniProt G5EFF5)", "T2 construct": "fusing the LBD of the receptor of interest (Hco, Cel, Dim or BmaDAF12) and the DBD of GAL4; expressed in transfected cells; host or cells: NIH3T3", "T2 sequence (G5EFF5 516-753 limits assumed)": "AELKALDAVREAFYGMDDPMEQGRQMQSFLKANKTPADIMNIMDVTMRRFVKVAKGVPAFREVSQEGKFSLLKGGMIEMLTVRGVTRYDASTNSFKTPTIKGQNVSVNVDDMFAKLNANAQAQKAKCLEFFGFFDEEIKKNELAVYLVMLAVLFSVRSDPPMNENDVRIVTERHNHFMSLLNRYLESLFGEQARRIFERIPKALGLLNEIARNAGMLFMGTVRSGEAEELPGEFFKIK", "experiment": "cell-based", "format": "cell-based"}, "FXR": {"tested_on": "FXR", "conditions": "10μM, 24 hours"}, "D. immitis iL3": {"tested_on": "D. immitis iL3", "conditions": "50 µM"}, "[1]": {"conditions": "concentrations well above the relevant physiological values"}, "[2]": {"conditions": "NIH3T3, 24 h, technical triplicates, Fig 2, read-out: EC50 (logEC50 SE) (converted)"}},
  "note": "“Also recorded” adds a separate entry of the source.",
  "data": [
    {"molecule": "3β-hydroxy-5-cholestenoic acid", "values": [
      {"measurement": "Activation of DimDAF-12 by spiked charcoal-stripped mouse serum", "setting": "DimDAF-12", "result": "failed to activate; also recorded: did not activate"},
      {"measurement": "Activation of HcoDAF-12 in dose-response", "setting": "HcoDAF-12; [1]", "result": "failed to activate"},
      {"measurement": "Activation of CelDAF-12 in dose-response", "setting": "CelDAF-12; [1]", "result": "failed to activate"},
      {"measurement": "Activation of FXR", "setting": "FXR", "result": "do not activate"}
    ]},
    {"molecule": "C[C@H](CCC[C@@H](C)[C@H]1CC[C@H]2[C@@H]3CCC4=CC(=O)CC[C@]4(C)[C@H]3CC[C@]12C)C(=O)O", "note": "[(25R)-Δ4-DA]", "values": [
      {"measurement": "Activation of DimDAF-12 by spiked charcoal-stripped mouse serum", "setting": "DimDAF-12", "result": "partially complement; also recorded: partially restores; also recorded: partial restoration"}
    ]},
    {"molecule": "CC(=O)N1CCN(c2ccc(OCC3COC(Cn4ccnc4)(c4ccc(Cl)cc4Cl)O3)cc2)CC1", "note": "(stereo not drawn) [ketoconazole]", "values": [
      {"measurement": "Survival of iL3", "setting": "D. immitis iL3", "result": "all iL3 died"}
    ]},
    {"molecule": "CC(CCCC(C)C1CCC2C3=CCC4CC(=O)CCC4(C)C3CCC21C)C(=O)O", "note": "[Δ7-dafachronic acid, (25S)-Δ7-dafachronic acid]", "values": [
      {"measurement": "EC50", "setting": "DimDAF-12", "result": 0.001, "unit": "µM"},
      {"measurement": "EC50", "setting": "HcoDAF-12; [2]", "result": 0.012, "unit": "µM"},
      {"measurement": "EC50", "setting": "CelDAF-12; [2]", "result": 0.011, "unit": "µM"}
    ]}
  ]
}
